Results reported in patent US8257739B2, “Pharmaceutical compositions of semi-ordered drugs and polymers” (Bend Research, Inc., priority 2002, dated 2012).

Tests used:
[1] = In vitro dissolution test of Drug 1 compositions in MFDS solution (concentration enhancement); assay type: physicochemical; settings: for AUC90 / Cmax9O: Drug 1, MFDS pH 6.5, 37° C., first 90 min; for AUC / Drug 1 Concentration: MFDS pH 6.5, 37° C.
Text: In conducting such a dissolution test, the amount of test composition used is an amount such that if all of the drug dissolved, the drug concentration would be at least 2-fold to 100-fold or more than that of the equilibrium concentration of the drug. The concentration of dissolved drug is typically measured as a function of time by sampling the test medium and plotting drug concentration in the test medium vs. time so that the MDC and/or AUC can be ascertained.
To avoid drug particulates greater than about 0.4 to 1.0 μm in size being present in the solution assayed, which would give an erroneous determination, the test solution is either filtered or centrifuged. “Dissolved drug” is typically taken as that material that either passes a 0.45 μm syringe filter or, alternatively, the material that remains in the supernatant following centrifugation. Filtration can be conducted using a 13 mm, 0.45 μm polyvinylidine difluoride syringe filter sold by Scientific Resources under the trademark TITAN®. Centrifugation is typically carried out in a polypropylene microcentrifuge tube by centrifuging at 13,000 G for 60 seconds. Other similar filtration or centrifugation methods can be employed and useful results obtained. For example, using other types of microfilters may yield values somewhat higher or lower (by about 10-40%) than that obtained with the filter specified above but will still allow identification of preferred compositions. It is recognized that this definition of “dissolved drug” encompasses not only monomeric solvated drug molecules but also a wide range of species such as polymer/drug assemblies that have submicron dimensions such as drug aggregates, aggregates of mixtures of polymer and drug, micelles, polymeric micelles, colloidal particles or nanocrystals, polymer/drug complexes, and other such drug-containing species that are present in the filtrate or supernatant in the specified dissolution test.
For these tests, samples containing 0.72 mg of Example 1B, 0.36 mg of either Control 1C or 1D, or 0.72 mg of Control 1E were separately added to microcentrifuge tubes. The tubes were placed in a 37° C. temperature-controlled chamber, and 1.8 mL MFDS solution at pH 6.5 was added. The contents of the tubes were quickly mixed using a vortex mixer for about 60 seconds. The tubes were then centrifuged at 13,000 G at 37° C. for 1 minute. The supernatant was sampled and diluted 1:6 (by volume) with methanol and then analyzed by high-performance liquid chromatography (HPLC). Drug 1 was analyzed by HPLC using a Waters Symmetry C18 column. The mobile phase consisted of 0.3 vol % glacial acetic acid, 0.2 vol % triethylamine in HPLC water/acetonitrile in a volume ratio of 50/50. Drug concentration was calculated by comparing UV absorbance at 260 nm to the absorbance of Drug 1 standards.
The contents of the tubes were then again mixed on the vortex mixer and allowed to stand undisturbed at 37° C. until the next sample was taken. Samples of the tubes were collected at 4, 10, 20, 40, 90, and 1200 minutes.

[2] = In vivo test of Drug 1 compositions, oral powder for constitution, plasma Drug 1; settings: male beagle dogs, oral gavage, 10 mgA/kg Drug 1, plasma
Experimental: The composition of Example 1B was used as an oral powder for constitution (OPC) for evaluating the performance of the composition in in vivo tests using male beagle dogs. The OPC was dosed as a suspension in a solution containing 0.5 wt % Methocel® (Dow Chemical Co.), and was prepared as follows. First, 5.0130 g of Methocel® was weighed out and added slowly to approximately 200 ml of water at 60° C. to form a Methocel® suspension. After all the Methocel® was added, the suspension was placed in a beaker of ice water. Next, 800 ml of chilled water was added with stirring. A 702.7 mg sample of Example 1B was weighed into a mortar. A drop of the Methocel® suspension was added to the mortar and the drug mixture was ground with a pestle. Additional Methocel® suspension was added gradually with grinding until a pourable suspension was obtained. The suspension was then transferred to a vial. The mortar and pestle were washed with the remaining Methocel® suspension. A total of 350 ml of Methocel® suspension was added to the Example 1B sample.
Six male beagle dogs were dosed with samples of Example 1B. Sufficient amounts of the OPC were dosed such that each dog received 10 mgA/kg of Drug 1 (where “A” refers to active drug). The dogs were fed 1 can of liquid diet the day prior to the study. On the day of the study, the dogs were dosed with the OPC using a gavage tube and a syringe. Whole blood samples of 6 ml were taken from the jugular vein using a plasma vacutainer containing sodium heparin with a 20 gauge needle at 0, ½, 1, 2, 3, 4, 6, 8, and 24 hours post dosing. Samples were spun in a refrigerated (5° C.) centrifuge at 3000 rpm for 5 minutes. The resultant plasma samples were poured into 2 ml cryogenic plastic tubes and stored in a freezer (−20° C.) within ½ hour post sampling time. Samples were then analyzed for Drug 1 using an HPLC method.
A similar method was used to dose the dogs with samples of Control 1B, Control 1C, and Control 1D. A washout period of at least 1 week was used between dosing of the various compositions.

[3] = In vitro dissolution test of Drug 2 compositions in MFDS solution (concentration enhancement); assay type: physicochemical; settings: 37° C.; for AUC / Drug 2 Concentration: MFDS
Experimental: The concentration-enhancement provided by Example 2, Control 2B and Control 2C was determined using an in vitro dissolution test as follows. Samples containing 3.91 mg of Example 2, 0.36 mg of Control 2B, or 3.9 mg of Control 2C, were separately added to microcentrifuge tubes. The tubes were placed in a 37° C. temperature-controlled chamber, and 1.8 mL MFDS solution was added. The contents of the tubes were quickly mixed using a vortex mixer for about 60 seconds. The tubes were then centrifuged at 13,000 G at 37° C. for 1 minute. The supernatant was sampled and diluted 1:6 (by volume) with methanol and then analyzed by high-performance liquid chromatography (HPLC). Drug 2 was analyzed by HPLC using a Phenomenex ODS 20 column (250 mm×4.6mm). The mobile phase consisted of 0.02 M KH2PO4 (pH 3)/acetonitrile in a volume ratio of 60/40. Drug concentration was calculated by comparing UV absorbance at 254 nm to the absorbance of Drug 2 standards. The contents of the tubes were then again mixed on the vortex mixer and the next sample was taken. […]

[4] = In vivo test of Drug 2 compositions, gelatin capsule, plasma Drug 2; settings: fasted male beagle dogs, one gelatin capsule, 40 mg Drug 2, plasma
Experimental: The composition of Example 2 was placed in a gelatin capsule such that the capsule contained 40 mg of Drug 2. Five fasted male beagle dogs were dosed with one capsule and whole blood samples of 6 ml were taken from the jugular vein using a plasma vacutainer containing sodium heparin with a 20 gauge needle at 0, ½, 1, 1½, 2, 3, 4, 6, 8, 12, and 24 hours post dosing. Samples were spun in a refrigerated (5° C.) centrifuge at 3000 rpm for 5 minutes. Resultant plasma samples were poured into 2 ml cryogenic plastic tubes and were stored in a freezer (−20° C.) within ½ hour post sampling time. Similar tests were performed with a gelatin capsule containing 40 mg of crystalline Drug 2 (Control 2B).

Row | AUC90 [1] [µg·min/mL] | Cmax9O [1] [µg/mL] | AUC ([1]; time 0 min) [µg·min/mL] | Drug 1 Concentration ([1]; time 0 min) [µg/mL] | AUC ([1]; time 4 min) [µg·min/mL] | Drug 1 Concentration ([1]; time 4 min) [µg/mL] | AUC ([1]; time 10 min) [µg·min/mL] | Drug 1 Concentration ([1]; time 10 min) [µg/mL] | AUC ([1]; time 20 min) | Drug 1 Concentration ([1]; time 20 min) [µg/mL] | AUC ([1]; time 40 min) | Drug 1 Concentration ([1]; time 40 min) [µg/mL] | AUC ([1]; time 90 min) | Drug 1 Concentration ([1]; time 90 min) [µg/mL] | AUC ([1]; time 1200 min) | Drug 1 Concentration ([1]; time 1200 min) [µg/mL] | Cmax [2] | Structure (SMILES) | further results
1 | 2200 | 32 | 0 | 0 | 0 | 9 | 100 | 15 | 300 µg·min/mL | 21 | 800 µg·min/mL | 27 | 2,200 min*μg/mL | 32 | 43,300 min*μg/mL | 42 | 1,650 ng/ml | NC(=O)N(O)C1C=C(c2cccc(Oc3ccc(F)cc3)c2)CC1 (single isomer, unassigned; (+)) [Control 1C, (+)-N-{3-[3-(4-fluorophenoxy)phenyl]-2-cyclopenten-1-yl}-N-hydroxyurea] | AUC(0-inf) ([2]; male, beagle, dog, plasma, po, 10 mgA/kg, read-out: AUC(0-inf)): 11100 ng·h/mL
2 | 5600 | 70 | 0 | 0 | 100 | 50 | 400 | 58 | 1,000 min*μg/mL | 61 | 2,300 min*μg/mL | 64 | 5,600 min*μg/mL | 70 | 77,800 min*μg/mL | 60 | 3,622 ng/ml | NC(=O)N(O)C1C=C(c2cccc(Oc3ccc(F)cc3)c2)CC1 (single isomer, unassigned; (+)) [Control 1D, (+)-N-{3-[3-(4-fluorophenoxy)phenyl]-2-cyclopenten-1-yl}-N-hydroxyurea] | AUC(0-inf) [2]: 20,700 ng/ml * hr
3 |  |  |  |  |  |  |  |  |  |  |  |  |  |  |  |  |  | O=C1Cc2cc(CCN3CCN(c4nsc5ccccc45)CC3)c(Cl)cc2N1 [Control 2B] | AUC90 ([3]; Drug 2, MFDS, first 90 min): 1,600 min * μg/mL; Cmax90 ([3]; Drug 2, MFDS, first 90 min): 23 µg/mL; AUC ([3]; time 4 min): 0 µg·min/mL; Drug 2 Concentration ([3]; time 4 min): 14 µg/mL; AUC ([3]; time 10 min): 100 µg·min/mL; Drug 2 Concentration ([3]; time 10 min): 17 µg/mL; AUC ([3]; time 20 min): 300 µg·min/mL; Drug 2 Concentration ([3]; time 20 min): 23 µg/mL; AUC ([3]; time 40 min): 700 µg·min/mL; Drug 2 Concentration ([3]; time 40 min): 19 µg/mL; AUC ([3]; time 90 min): 1,600 min*μg/mL; Drug 2 Concentration ([3]; time 90 min): 15 µg/mL; AUC ([3]; time 1200 min): 14,900 min*μg/mL; Drug 2 Concentration ([3]; time 1200 min): 9 µg/mL; AUC(0-inf) [4]: 1050 ng·h/mL; Cmax [4]: 196 ng/mL
